≈ marks a conversion by molar mass, not a printed value. Calls of active or inactive are those of the source. The rule behind the calls is not given here.
Key:
Venturia inaequalis = assay: Antifungal activity against Venturia inaequalis; format: functional
Bipolaris oryzae = assay: Antifungal activity against Cochliobolus miyabeanus; format: functional
[1] = test system: Monilinia mali (Monilinia mali); assay: Antifungal activity against Monilinia mali
MCF7 [2] = assay: Cytotoxicity against human MCF7 cells at 88 uM by resazurin microplate assay; format: functional, cell-based
KB [3] = assay: Cytotoxicity against human KB cells at 178 uM by resazurin microplate assay; format: functional, cell-based
NCI-H187 [4] = assay: Cytotoxicity against human NCI-H187 cells at 178 uM by resazurin microplate assay; format: functional, cell-based
Vero [5] = assay: Cytotoxicity against african green monkey Vero cells at 178 uM by Green fluorescent protein microplate assay; format: cell-based; conditions: chlorocebus sabaeus
MCF7 [6] = assay: Cytotoxicity against human MCF7 cells by resazurin microplate assay; format: functional, cell-based
[7] = test system: Mycobacterium tuberculosis; assay: Antibacterial activity against Mycobacterium tuberculosis H37Ra by Green fluorescent protein microplate assay; format: functional
Plasmodium falciparum = assay: Antimalarial activity against Plasmodium falciparum K1; format: functional, organism-based
Candida albicans = assay: Antifungal activity against Candida albicans; format: functional, organism-based
Pyricularia grisea = assay: Antifungal activity against Magnaporthe grisea; format: functional, organism-based
KB [8] = assay: Cytotoxicity against human KB cells by resazurin microplate assay; format: functional, cell-based
NCI-H187 [9] = assay: Cytotoxicity against human NCI-H187 cells at 88 uM by resazurin microplate assay; format: functional, cell-based
Vero [10] = assay: Cytotoxicity against african green monkey Vero cells at 88 uM by Green fluorescent protein microplate assay; format: cell-based; conditions: chlorocebus sabaeus

Question: Which MIC (Venturia inaequalis) does the source give for CCCCCCCCCC[C@@H](C)[C@@H]1CC(=O)N[C@H]([C@@H](C)O)C(=O)N[C@@H](C)C(=O)N[C@H](C)C(=O)N[C@@H](CCC(N)=O)C(=O)N[C@H](Cc2ccc(O)cc2)C(=O)N[C@@H]([C@@H](C)CC)C(=O)O1 here?
Answer: 1 µg/mL (≈ 1.13 µM)

Question: What about the MIC (Bipolaris oryzae) of the same molecule?
Answer: 1 µg/mL (≈ 1.13 µM)

Question: What about the MIC [1] of the same molecule?
Answer: 1 µg/mL (≈ 1.13 µM)

Question: How did the IC50 (MCF7 [2]) turn out when CCC[C@H](O)C[C@@H]1Cc2cc(OC)cc(O)c2C(=O)O1 was run?
Answer: 62 µM

Question: And the Activity (KB [3])?
Answer: inactive

Question: And the Activity (NCI-H187 [4])?
Answer: inactive

Question: And the Activity (Vero [5])?
Answer: Not Active

Question: And the IC50 (MCF7 [6])?
Answer: 62 µM

Question: Which results are given for CCCCCCCCCC1CCCC(=O)N[C@H]([C@@H](C)O)C(=O)N[C@@H](C)C(=O)N[C@@H](C)C(=O)N[C@@H](CCC(N)=O)C(=O)N[C@@H](Cc2ccc(O)cc2)C(=O)N[C@@H](C(C)C)C(=O)O1 (stereo partly specified) [CORDYCOMMUNIN]?
Answer: MIC [7]: 15 µM (≈ 12.9 µg/mL); MIC (Plasmodium falciparum): inactive; MIC (Candida albicans): inactive; MIC (Pyricularia grisea): inactive; IC50 (KB [8]): 45 µM; Activity (MCF7 [2]): inactive; Activity (NCI-H187 [9]): inactive; Activity (Vero [10]): Not Active

Question: Which results are given for CCC[C@H](O)C[C@@H]1Cc2cc(OC)cc(OC)c2C(=O)O1?
Answer: Activity [7]: inactive; MIC (Plasmodium falciparum): inactive; MIC (Candida albicans): inactive; MIC (Pyricularia grisea): inactive; IC50 (KB [8]): 45 µM; Activity (MCF7 [2]): inactive; Activity (NCI-H187 [9]): inactive; Activity (Vero [10]): Not Active; Activity (KB [3]): inactive; Activity (NCI-H187 [4]): inactive; Activity (Vero [5]): Not Active; Activity (MCF7 [6]): inactive

Question: For CCCCCCCCCC[C@@H](C)[C@@H]1CC(=O)N[C@H]([C@@H](C)O)C(=O)N[C@@H](C)C(=O)N[C@H](C)C(=O)N[C@@H](CCC(N)=O)C(=O)N[C@H](Cc2ccc(O)cc2)C(=O)N[C@@H](C(C)C)C(=O)O1 [WA 493 A], which MIC (Venturia inaequalis) is on record?
Answer: 1 µg/mL (≈ 1.14 µM)

Question: And the MIC (Bipolaris oryzae)?
Answer: 1 µg/mL (≈ 1.14 µM)

Question: What about the MIC [1] of the same molecule?
Answer: 1 µg/mL (≈ 1.14 µM)

Reference: ChEMBL document CHEMBL1154844, “An antimycobacterial cyclodepsipeptide from the entomopathogenic fungus Ophiocordyceps communis BCC 16475” (J Nat Prod, 2010)
